According to US20230218573A1, “INDOLE COMPOUNDS FOR THE TREATMENT OF NEURODEGENERATIVE DISEASES” (GALYAN BIO, INC., priority 2020, published 2023):

What was measured:
[1] = system: NGFR; assay: Nanostring gene expression in STHdh 111/111 cells: NGFR; assay type: cell-based, mouse; conditions: treated STHdh 111/111 (Q111-10), 48 h; in comparison to untreated STHdh 111/111
Method: (§1) Gene expression of certain transcripts of interest were measured using Nanostring Technology. […] Some STHdh 7/7 and STHdh 111/111 cell samples were not heat shocked and some wells were treated with Compound 22 at the indicated concentration on for 48 hours (Table 12). Some STHdh 7/7 and STHdh 111/111 cell samples were heat shocked for 3 hours some wells were treated with Compound 22 at the indicated concentration on for 48 hours (Table 13). Cells are washed with PBS, trypsinised, and gathered in a 15 ml falcon tube. After a short spin down for 3 minutes at 300 g, the cell pellet was washed with PBS once, before it was frozen down in liquid nitrogen. RNA was extracted with a standard protocol. The nCounter® Mouse Neuropathology Panel (Nanostring, Seattle) was used for gene expression analysis according to the manufacturer’s protocols.

[2] = target: T1, Exon1 Q46 protein (Homo sapiens, UniProt P42858, INS38QQQQQQQQQQQQQQQQQQQQQQQQQ); assay: Kd to Exon1 Q46 protein; assay type: binding
T1 construct: fused on or other part: E. coli thioredoxin (TRX) at the N-terminus as a solubility handle; linker […]; C-terminal GSG-His6 tag

[3] = system: Slc32a1; assay: Nanostring gene expression in STHdh 111/111 cells: Slc32a1; assay type: cell-based, mouse; conditions: treated STHdh 111/111 (Q111-10), 48 h; in comparison to untreated STHdh 111/111
Method: as §1

[4] = system: Olig2; assay: Nanostring gene expression in STHdh 111/111 cells: Olig2; assay type: cell-based, mouse; conditions: treated STHdh 111/111 (Q111-10), 48 h; in comparison to untreated STHdh 111/111
Method: as §1

[5] = system: Exon1 Q46; assay: Circular dichroism of Exon1 Q46, predominantly α-helical state; assay type: biochemical; conditions: increasing doses
Method: Protein samples were diluted with buffer to 7.5 µM prior to Circular Dichroism (CD) measurements. Measurements were conducted at room temperature.
Four spectra at each measurement were taken every 1 nm from 200 to 260 nm, scanning at 50 nm/min with an averaging time of 1 sec. Spectra were obtained from samples in 20 mM phosphate, pH 7.4. Ten scans were averaged for each sample spectrum
Single-wavelength readings at 222 nm were obtained. After subtraction of the Trx contribution, the α-helical content of Httex1 was estimated from its mean residue ellipticity (MREHttex1) at 222 nm. This calculation was conducted as described by Bravo-Arredondo (Bravo-Arredondo, J.M. et al., J Biol Chem. 2018 Dec 21;293(51):19613-19623).
MRE Exon-1 […] and Q46 (Mean Residue Ellipticity) was measured every 1 sec for 300 sec; the 301 readings for each sample were averaged and MRE Trx subtracted. The number of amino acids in each sample to experience a change in helicity was estimated using a previously developed helix-coil transition model, which gave the change in fraction of helicity (ΔfHelix) by the following equation: […]
where MRE Exon1 Q26 or Q46 (MREHttex1 in the formula) describes the helix-coil transition, obtained from the difference between MRE Eon1 Q26 or Q46 at 222 nm of the fusion protein at the given temperature (in our case 37° C.) and the product of MRE Trx at 222 nm at the same temperature and the fraction of residues comprised by Trx in that particular construct, and
In order to calculate an equilibrium of the two states model, percent α-helicity was calculated using the relation of MREHttex1 = 0 and -34700 (deg cm^2 dmol^-1) for 0% and 100% helicity, respectively.
The CD measurements protocol for Compound 101 was the same as outlined above except that from 206 nm - 210 nm and 220 nm - 224 nm, the step size was 0.2 nm, and the bandwidth was 1 nm.

[6] = system: STHdh 7/7 striatal cells; assay: Cell viability of heat shocked STHdh 7/7 striatal cells; assay type: cell-based, mouse; conditions: Mus musculus, 48 hours treatment, read-out: Cell Viability striatal cells 3h heat shocked
Method: RESULTS - Table 7b summarizes the effect of the compounds on cell viability. STHdh 7/7 were heat shocked for 3 hours and treated for 48 hours with small molecule compounds. Table 2 lists the cell viability in striatal cells after 48 hours.
Effect of Compound 22 on Cell Viability of Wildtype Striatal Neurons - STHdh 7/7 cells are striatal cells that express wildtype huntingtin. These cells were cultured in the same conditions as described above for STHdh 111/111. The neurons were first heat shocked for 3 hours at 41° C. as described above. After 48 hours of treatment with the small molecule Compounds, cell viability was determined using the method described above. The “buffer” control is represents cells treated with a buffer only, without any compounds added. Some of the compounds show higher cell viability in comparison to control heat shocked STHdh 7/7 neurons with buffer and no treatment (FIG. 9).

[7] = Microsomal stability in humans; assay type: in vitro ADME; conditions: humans versus mice
[8] = Body weight of R6/2 mice under chronic administration; assay type: in vivo
Method: Methods - Total of 20 female and male R6/2 mice and 10 female and male wild-type littermate control mice (WT) were used in the study. The mice were genotyped and the R6/2 mice were divided into different treatment groups based on their litter and baseline body weight. The treatment with Vehicle or Compound 22(33 mg/kg; 5 ml/kg, i.p. QD) was started at 4 weeks of age after the baseline behavioral tests (FIG. 10). Body weights were measured at 3 weeks of age and twice a week until the end of the study.
The experimental groups were: • Group 1) 10 wild-type mice (mixed gender) treated with Vehicle (5 ml/kg, i.p., QD) starting at 4 weeks of age • Group 2) 10 R6/2 mice (mixed gender) treated with Vehicle (5 ml/kg, i.p., QD) starting at 4 weeks of age • Group 3) 10 R6/2 mice (mixed gender) treated with Compound 22 (33 mg/kg; 5 ml/kg, i.p. QD) starting at 4 weeks of age
44.3.7 - Compound Delivery and Dosing - Treatment with Compound 22 (33 mg/kg; 5 ml/kg, i.p. QD) or Vehicle was started at age week 4 and continued until the 12 weeks of age. The test articles were handled and stored and the dose formulations were prepared according to detailed instructions provided by the Sponsor.
44.3.8 - Body Weight - Body weight was measured starting at 3 weeks of age before treatment onset and two times per week on the same day (on Monday and Friday) until the end of the study.

T1 sequence (P42858 whole entry, looked up, stated change not applied, the tested form may be a part): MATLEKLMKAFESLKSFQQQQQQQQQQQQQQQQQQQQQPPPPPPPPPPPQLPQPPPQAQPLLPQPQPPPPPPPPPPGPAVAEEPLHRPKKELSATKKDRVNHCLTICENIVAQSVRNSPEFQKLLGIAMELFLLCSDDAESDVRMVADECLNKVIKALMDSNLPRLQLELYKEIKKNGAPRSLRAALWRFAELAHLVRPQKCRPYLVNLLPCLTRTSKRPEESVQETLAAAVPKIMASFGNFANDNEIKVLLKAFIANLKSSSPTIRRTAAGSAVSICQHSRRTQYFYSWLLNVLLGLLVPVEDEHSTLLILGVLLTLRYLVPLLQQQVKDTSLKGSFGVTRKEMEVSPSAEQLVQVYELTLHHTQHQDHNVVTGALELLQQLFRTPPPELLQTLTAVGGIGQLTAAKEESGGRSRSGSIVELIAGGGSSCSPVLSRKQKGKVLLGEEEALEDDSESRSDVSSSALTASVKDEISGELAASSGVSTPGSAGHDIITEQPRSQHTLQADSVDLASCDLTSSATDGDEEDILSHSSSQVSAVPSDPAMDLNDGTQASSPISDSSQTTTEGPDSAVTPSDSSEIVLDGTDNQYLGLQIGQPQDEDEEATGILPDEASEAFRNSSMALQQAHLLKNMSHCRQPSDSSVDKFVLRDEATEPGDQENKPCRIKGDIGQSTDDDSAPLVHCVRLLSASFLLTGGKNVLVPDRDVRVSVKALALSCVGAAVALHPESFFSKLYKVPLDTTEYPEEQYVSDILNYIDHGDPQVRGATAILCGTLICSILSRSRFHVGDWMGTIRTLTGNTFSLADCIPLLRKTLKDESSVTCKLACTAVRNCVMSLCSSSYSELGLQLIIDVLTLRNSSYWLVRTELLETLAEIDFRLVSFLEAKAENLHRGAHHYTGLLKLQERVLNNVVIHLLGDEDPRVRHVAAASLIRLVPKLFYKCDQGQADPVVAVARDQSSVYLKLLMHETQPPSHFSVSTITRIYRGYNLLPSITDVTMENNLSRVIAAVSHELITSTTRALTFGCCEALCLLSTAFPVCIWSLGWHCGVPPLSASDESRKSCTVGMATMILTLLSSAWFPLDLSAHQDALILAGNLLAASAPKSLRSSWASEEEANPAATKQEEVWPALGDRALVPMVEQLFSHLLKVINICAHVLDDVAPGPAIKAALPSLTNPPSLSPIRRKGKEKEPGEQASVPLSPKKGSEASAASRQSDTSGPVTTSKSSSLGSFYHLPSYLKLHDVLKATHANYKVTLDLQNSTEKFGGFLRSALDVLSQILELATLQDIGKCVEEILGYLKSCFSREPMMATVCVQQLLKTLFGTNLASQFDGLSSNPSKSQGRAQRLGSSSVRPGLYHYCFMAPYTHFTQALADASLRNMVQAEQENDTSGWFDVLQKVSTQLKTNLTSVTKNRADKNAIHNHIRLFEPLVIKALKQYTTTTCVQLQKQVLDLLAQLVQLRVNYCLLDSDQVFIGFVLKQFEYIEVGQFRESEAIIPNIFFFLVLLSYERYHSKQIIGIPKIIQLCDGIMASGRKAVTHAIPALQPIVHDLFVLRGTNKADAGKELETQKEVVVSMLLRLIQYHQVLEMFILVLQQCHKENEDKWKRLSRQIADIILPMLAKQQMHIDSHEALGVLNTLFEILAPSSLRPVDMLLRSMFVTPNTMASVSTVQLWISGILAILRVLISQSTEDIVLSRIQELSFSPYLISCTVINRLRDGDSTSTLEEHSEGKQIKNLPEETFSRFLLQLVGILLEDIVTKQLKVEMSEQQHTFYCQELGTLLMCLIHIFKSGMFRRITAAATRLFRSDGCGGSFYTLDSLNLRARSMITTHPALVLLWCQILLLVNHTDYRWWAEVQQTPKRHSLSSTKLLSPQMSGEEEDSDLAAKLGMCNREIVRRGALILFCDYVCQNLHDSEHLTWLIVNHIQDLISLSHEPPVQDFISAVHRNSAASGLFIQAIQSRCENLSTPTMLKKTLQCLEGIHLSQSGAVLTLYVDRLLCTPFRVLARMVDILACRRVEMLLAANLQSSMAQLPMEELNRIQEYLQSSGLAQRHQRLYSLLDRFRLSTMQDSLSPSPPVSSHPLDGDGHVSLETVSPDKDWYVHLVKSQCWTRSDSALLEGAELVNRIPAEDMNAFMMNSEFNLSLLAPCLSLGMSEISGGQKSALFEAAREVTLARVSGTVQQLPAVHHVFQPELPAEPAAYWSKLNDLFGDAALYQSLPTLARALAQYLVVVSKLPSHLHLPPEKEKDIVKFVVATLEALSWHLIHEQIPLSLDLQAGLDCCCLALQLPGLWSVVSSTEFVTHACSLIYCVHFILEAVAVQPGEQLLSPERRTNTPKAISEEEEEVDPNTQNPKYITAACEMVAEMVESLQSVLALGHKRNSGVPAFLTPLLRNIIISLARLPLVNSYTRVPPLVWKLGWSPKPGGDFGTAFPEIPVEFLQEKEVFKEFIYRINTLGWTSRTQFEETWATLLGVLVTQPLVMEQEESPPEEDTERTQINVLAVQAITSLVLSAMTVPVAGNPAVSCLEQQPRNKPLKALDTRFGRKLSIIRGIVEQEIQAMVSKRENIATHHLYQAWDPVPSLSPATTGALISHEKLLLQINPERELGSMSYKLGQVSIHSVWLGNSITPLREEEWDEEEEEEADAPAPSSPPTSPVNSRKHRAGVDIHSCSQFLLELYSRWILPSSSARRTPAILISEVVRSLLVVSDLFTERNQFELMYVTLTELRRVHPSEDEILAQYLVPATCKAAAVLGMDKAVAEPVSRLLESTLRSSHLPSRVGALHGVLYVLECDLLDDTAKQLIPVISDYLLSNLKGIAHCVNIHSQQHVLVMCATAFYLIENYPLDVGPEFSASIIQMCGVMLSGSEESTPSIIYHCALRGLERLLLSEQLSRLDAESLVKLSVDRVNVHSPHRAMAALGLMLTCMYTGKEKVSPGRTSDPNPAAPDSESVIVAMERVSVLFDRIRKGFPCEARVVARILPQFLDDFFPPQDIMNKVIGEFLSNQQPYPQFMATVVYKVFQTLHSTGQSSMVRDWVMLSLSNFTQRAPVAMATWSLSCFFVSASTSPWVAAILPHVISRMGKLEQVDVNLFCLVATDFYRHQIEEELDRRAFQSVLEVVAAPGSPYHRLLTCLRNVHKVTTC

With Cc1[nH]c2ccc(C(=O)NCCN(C(C)C)C(C)C)cc2c1C [Compound 22] the “NGFR expression increased by” value [1] was 60%, the Kd [2] was 700 nM and the Slc32a1 expression upregulated [3] was 12 fold. The Olig2 expression [4] was “doubled”, the “effect of increasing doses on the predominantly α-helical state of Exon1 Q46” value [5] was “decreases the proportion of a predominantly α-helical state” and the viability at 10 µM [6] was 34.9%. The “microsomal stability in humans in comparison to mice” value [7] was 20 times, the “body weight versus vehicle treated R6/2 mice” value ([8]; 33 mg/kg i.p. QD from 4 to 12 weeks of age, pooled genders, females, males) was “no significant differences” and the “body weight loss versus untreated female R6/2 mice” value ([8]; female R6/2 mice, week 12, 33 mg/kg i.p. QD) was “significantly improved”. The “body weight loss improvement versus untreated male R6/2 mice” value ([8]; male R6/2 mice, week 12, 33 mg/kg i.p. QD) was “not observed”.
